Literature values, collected in patent publication US20080011293A1, “Stable Xylometazoline and Oxymetazoline Solution” (priority 1999, published 2008).
Like-named read-outs stand apart in the source and are kept apart here.

Tested on: Pseudomonas aeruginosa

Row | SMILES | concentration above which the inhibitory effect sets in (pH of 7.4 (neutral)) | concentration required to trigger the inhibitory effect (under acid conditions) [% by weight] | concentration above which the inhibitory effect sets in (pH of 5.6 adjusted using HCl and NaOH)
1 | OC[C@@H](O)[C@@H](O)[C@H](O)[C@@H](O)CO [sorbitol] | identical | 40 | 
2 | OCC(O)CO [glycerol] | above 30 % by weight |  | above 25 % by weight
